Measurements: ChEMBL document CHEMBL1201862, “PubChem BioAssay data set” (2004)
Calls of active or inactive are those of the source.

Legend:
HeLa = test: ATP-based viability loss in HeLa cells – cell-based, CellTiter-Glo luminescence, cherry-pick samples, cytotoxicity control for MITF activator project, dose response (AID 540259); type: functional; conditions: Homo sapiens
cells [1] = type: functional
[2] = biological target: T1, Trace amine-associated receptor 1 (Homo sapiens, UniProt Q96RJ0); test: Counterscreen for agonists of the human trace amine associated receptor 1 (hTAAR1): Fluorescence-based cell-based high throughput dose response assay to identify hTAAR1 agonist that also desensitize TAAR1 receptor response.; type: functional
T1 sequence (Q96RJ0 whole entry): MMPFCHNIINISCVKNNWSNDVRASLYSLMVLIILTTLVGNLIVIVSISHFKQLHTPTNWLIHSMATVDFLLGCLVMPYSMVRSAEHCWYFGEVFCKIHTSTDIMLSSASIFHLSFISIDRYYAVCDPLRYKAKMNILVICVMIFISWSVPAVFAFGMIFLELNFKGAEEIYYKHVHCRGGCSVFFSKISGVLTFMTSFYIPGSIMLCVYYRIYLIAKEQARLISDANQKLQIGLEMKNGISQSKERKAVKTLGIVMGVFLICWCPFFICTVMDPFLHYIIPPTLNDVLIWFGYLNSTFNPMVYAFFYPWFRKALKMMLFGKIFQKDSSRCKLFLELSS

cells [3] = type: functional, cell-based
[4] = biological target: T1, Trace amine-associated receptor 1; test: Fluorescence-based cell-based high throughput dose response assay to identify agonists of the human trace amine associated receptor 1 (TAAR1).; type: functional
cells [5] = type: functional, cell-based; remark: listed apart in the source
[6] = biological target: T2, Carboxy-terminal domain RNA polymerase II polypeptide A small phosphatase 1 (Homo sapiens, UniProt Q9GZU7); test: CTDSP1 inhibitors, concentration-response, biochemical, absorbance readout, ultra-high-throughput screen actives (AID 540297); type: functional
T2 sequence (Q9GZU7 whole entry): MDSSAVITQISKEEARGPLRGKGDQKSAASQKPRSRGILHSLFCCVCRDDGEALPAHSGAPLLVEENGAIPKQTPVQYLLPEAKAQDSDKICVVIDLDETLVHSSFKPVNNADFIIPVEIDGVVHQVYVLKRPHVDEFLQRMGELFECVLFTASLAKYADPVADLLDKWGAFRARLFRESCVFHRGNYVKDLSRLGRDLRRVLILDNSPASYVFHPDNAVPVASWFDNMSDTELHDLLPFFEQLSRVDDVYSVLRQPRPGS

Fatty acid synthase [7] = biological target: T3, Fatty acid synthase (Homo sapiens, UniProt P49327); test: inhibition of human FAS-TE enzyme activity – biochemical, endpoint fluorescence intensity, uHTS hits, dose response (AID 624327); type: functional;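 further: fluorescence from hydrolysis of an O-methyl fluorescein acyl ester substrate by the enzyme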
T3 sequence (P49327 whole entry): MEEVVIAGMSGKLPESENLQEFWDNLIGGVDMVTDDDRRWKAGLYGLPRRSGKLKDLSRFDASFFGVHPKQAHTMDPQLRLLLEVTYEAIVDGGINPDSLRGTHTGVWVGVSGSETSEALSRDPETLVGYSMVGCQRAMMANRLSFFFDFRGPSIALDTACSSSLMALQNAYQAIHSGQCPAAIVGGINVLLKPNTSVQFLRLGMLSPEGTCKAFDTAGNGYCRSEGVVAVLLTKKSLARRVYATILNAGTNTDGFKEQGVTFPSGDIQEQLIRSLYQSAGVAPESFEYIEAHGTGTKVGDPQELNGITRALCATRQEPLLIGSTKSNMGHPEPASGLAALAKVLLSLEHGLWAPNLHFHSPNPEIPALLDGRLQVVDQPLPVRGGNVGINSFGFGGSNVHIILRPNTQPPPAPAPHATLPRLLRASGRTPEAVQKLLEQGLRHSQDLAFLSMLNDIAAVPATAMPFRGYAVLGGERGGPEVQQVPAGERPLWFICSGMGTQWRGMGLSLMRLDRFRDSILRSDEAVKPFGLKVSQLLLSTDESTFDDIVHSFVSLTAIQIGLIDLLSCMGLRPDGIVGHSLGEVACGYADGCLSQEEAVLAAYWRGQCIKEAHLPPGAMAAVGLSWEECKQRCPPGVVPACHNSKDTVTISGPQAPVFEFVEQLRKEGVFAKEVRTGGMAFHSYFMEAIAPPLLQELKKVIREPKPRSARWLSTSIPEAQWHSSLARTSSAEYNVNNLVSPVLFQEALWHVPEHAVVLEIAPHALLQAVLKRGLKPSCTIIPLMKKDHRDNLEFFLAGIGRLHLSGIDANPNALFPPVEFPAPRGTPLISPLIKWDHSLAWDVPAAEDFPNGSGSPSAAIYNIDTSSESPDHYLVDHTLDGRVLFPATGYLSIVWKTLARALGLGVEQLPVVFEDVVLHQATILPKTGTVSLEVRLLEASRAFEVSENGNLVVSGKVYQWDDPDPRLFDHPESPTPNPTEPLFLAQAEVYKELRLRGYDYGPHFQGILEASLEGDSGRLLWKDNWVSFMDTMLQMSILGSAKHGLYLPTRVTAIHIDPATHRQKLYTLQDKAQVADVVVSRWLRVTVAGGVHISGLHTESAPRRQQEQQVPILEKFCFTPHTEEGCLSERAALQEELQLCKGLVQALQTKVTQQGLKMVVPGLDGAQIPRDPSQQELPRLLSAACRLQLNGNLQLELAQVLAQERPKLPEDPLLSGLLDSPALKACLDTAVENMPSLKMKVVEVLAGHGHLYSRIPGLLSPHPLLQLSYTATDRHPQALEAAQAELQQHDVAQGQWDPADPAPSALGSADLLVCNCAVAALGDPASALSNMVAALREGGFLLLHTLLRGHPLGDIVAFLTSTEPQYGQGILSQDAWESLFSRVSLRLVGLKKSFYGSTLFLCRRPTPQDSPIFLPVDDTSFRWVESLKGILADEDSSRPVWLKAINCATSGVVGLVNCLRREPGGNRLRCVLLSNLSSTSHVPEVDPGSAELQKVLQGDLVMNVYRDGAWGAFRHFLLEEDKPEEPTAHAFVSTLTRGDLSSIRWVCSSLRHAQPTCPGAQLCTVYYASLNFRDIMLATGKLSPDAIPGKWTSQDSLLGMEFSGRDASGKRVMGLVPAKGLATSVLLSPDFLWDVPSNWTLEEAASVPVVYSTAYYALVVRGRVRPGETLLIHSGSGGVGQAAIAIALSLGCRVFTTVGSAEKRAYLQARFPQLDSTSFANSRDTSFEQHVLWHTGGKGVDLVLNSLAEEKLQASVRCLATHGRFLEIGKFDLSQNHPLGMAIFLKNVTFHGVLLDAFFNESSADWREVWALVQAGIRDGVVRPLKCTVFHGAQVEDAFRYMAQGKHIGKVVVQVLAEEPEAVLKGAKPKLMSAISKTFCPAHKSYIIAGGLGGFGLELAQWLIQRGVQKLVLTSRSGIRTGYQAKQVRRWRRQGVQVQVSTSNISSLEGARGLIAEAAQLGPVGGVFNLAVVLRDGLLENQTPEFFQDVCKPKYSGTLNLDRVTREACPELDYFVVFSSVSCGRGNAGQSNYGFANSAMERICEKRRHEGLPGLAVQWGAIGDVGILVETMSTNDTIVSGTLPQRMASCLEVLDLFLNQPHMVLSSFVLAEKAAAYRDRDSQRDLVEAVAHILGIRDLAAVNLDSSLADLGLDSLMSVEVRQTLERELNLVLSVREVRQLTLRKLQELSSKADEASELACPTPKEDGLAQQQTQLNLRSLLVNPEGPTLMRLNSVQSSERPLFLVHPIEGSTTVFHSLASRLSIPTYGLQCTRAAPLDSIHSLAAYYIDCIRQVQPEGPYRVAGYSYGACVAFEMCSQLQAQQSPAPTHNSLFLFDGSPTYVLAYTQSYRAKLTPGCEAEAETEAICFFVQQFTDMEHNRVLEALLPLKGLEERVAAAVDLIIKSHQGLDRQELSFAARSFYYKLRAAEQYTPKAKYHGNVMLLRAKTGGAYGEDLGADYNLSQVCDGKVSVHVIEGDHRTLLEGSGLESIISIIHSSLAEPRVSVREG

Fatty acid synthase [8] = biological target: T3, Fatty acid synthase; test: inhibition of human FAS-TE enzyme activity – biochemical, kinetic fluorescence intensity, dose response (AID 624326); type: functional;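 further: rate of fluorescence rise from hydrolysis of a fluorogenic O-methyl fluorescein ester substrate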
[9] = biological target: T4, High affinity choline transporter 1 (Homo sapiens, UniProt Q9GZV3); test: human choline transporter blockers, potency – cell-based, 5-point CRC, membrane potential dye, dose response (AID 504840); type: functional
T4 sequence (Q9GZV3 whole entry): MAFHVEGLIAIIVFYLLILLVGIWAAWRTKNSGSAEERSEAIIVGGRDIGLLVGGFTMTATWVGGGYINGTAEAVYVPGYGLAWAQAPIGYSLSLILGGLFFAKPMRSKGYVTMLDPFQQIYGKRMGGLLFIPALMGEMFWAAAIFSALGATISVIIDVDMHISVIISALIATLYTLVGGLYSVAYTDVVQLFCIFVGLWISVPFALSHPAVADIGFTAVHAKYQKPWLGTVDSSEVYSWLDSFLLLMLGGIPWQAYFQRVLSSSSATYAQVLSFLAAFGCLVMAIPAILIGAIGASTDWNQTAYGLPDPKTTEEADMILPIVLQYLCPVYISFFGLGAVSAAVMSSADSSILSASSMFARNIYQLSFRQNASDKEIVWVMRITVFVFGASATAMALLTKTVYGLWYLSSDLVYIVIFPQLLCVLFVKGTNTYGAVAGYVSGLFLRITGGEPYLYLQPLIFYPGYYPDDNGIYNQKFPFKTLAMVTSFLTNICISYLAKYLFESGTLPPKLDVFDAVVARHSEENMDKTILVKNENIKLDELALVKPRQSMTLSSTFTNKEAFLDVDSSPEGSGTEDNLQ

[10] = biological target: T5, Histone-lysine N-methyltransferase NSD2 (Homo sapiens, UniProt O96028); type: biochemical
T5 sequence (O96028 whole entry): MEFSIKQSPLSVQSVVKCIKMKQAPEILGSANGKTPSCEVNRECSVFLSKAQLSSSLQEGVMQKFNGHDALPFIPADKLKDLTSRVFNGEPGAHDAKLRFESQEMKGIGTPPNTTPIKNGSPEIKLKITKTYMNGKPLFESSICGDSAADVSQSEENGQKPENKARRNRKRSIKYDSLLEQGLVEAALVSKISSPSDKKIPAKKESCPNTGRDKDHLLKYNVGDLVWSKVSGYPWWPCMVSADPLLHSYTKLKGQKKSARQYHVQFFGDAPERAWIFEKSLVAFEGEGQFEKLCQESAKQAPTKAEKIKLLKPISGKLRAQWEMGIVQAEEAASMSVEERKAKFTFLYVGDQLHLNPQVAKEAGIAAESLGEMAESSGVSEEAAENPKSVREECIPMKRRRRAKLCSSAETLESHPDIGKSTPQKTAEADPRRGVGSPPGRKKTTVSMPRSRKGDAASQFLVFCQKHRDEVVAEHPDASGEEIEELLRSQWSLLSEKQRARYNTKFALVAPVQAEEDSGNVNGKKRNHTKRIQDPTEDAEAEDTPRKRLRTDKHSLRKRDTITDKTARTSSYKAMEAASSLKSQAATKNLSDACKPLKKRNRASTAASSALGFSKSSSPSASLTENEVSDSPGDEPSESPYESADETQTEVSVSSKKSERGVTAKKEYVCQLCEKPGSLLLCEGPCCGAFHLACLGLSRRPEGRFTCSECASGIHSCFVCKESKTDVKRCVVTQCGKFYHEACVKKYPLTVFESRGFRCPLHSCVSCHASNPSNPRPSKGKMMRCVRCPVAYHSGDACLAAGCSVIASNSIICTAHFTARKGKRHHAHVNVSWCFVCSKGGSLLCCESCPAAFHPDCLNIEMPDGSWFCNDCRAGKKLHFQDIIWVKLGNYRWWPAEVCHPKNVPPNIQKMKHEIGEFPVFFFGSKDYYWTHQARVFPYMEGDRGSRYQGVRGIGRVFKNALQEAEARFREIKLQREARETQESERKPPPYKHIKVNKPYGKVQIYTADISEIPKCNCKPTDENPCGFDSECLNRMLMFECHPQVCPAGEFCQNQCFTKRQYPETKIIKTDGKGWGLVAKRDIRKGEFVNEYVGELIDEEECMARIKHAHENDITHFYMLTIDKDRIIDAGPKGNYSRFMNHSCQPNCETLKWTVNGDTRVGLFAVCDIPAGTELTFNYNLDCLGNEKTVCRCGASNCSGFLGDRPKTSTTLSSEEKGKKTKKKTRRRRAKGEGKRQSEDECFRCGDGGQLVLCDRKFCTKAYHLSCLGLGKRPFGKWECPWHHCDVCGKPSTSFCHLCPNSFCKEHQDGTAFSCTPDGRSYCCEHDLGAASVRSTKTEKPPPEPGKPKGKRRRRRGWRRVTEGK

[11] = biological target: Glucose-6-phosphate 1-dehydrogenase (Homo sapiens, UniProt P11413); test: inhibition of Homo sapiens G6PD, dose series – biochemical, fluorescence, selectivity assay for P. falciparum G6PD inhibitor project, dose response (AID 504792); type: functional
Sequence of Glucose-6-phosphate 1-dehydrogenase (P11413 whole entry): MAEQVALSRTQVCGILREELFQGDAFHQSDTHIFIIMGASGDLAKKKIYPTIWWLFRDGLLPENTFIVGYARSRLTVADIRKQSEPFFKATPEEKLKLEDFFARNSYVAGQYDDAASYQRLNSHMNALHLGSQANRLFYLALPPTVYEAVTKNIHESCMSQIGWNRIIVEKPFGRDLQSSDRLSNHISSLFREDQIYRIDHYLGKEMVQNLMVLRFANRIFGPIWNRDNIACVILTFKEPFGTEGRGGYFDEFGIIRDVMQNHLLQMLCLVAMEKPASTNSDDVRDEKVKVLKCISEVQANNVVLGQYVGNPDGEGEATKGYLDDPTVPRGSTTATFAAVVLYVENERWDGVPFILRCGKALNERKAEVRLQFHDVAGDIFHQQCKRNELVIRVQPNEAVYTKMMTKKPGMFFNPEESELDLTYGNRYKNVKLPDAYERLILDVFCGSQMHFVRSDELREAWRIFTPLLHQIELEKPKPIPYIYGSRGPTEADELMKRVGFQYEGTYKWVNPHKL

[12] = biological target: T6, Heat shock factor protein 1 (Mus musculus, UniProt P38532); test: decrease of HSF1-responsive luciferase luminescence – cell-based, NIH3T3, dose retest, confirmation (AID 2382); type: functional;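 further: NIH3T3 fibroblasts with HSF1-driven luciferase reporter stressed by proteasome inhibitor MG132; luminescence from HSF1-driven luciferase expression after 8 hours of MG132 stress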
T6 sequence (P38532 whole entry): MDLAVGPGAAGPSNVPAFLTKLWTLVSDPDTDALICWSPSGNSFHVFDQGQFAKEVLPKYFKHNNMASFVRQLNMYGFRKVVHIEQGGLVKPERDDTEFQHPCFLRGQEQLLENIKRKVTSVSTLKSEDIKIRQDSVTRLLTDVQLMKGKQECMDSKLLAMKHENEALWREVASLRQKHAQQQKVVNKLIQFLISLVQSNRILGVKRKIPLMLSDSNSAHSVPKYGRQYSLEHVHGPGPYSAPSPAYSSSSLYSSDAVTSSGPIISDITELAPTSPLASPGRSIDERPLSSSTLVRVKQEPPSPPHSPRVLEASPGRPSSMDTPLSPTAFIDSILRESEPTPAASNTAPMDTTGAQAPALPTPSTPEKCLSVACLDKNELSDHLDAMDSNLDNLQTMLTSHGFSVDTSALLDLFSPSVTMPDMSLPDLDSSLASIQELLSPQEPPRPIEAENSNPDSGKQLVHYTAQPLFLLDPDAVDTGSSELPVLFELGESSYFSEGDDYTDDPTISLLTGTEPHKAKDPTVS

[13] = biological target: T7, DNA repair protein RAD52 homolog (Homo sapiens, UniProt P43351); type: functional, biochemical
T7 sequence (P43351 whole entry): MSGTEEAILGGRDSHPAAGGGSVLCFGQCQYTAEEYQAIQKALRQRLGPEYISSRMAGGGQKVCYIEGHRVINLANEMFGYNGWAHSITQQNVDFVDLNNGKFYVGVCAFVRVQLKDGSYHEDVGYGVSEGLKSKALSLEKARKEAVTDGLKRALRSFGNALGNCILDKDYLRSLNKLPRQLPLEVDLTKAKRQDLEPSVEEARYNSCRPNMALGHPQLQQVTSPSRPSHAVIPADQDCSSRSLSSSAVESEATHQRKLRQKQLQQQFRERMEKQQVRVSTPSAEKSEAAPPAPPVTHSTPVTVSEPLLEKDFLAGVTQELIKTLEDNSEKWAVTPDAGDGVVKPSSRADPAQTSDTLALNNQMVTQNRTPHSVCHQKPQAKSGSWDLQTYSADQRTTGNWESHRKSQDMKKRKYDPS

[14] = biological target: T8, Rac GTPase-activating protein 1 (Homo sapiens, UniProt Q9H0H5); test: blockers of MgcRacGAP-driven Rac1 GTP hydrolysis – biochemical, ADP Hunter fluorescence, primary and confirmatory, confirmation (AID 624330); type: functional
T8 sequence (Q9H0H5 whole entry): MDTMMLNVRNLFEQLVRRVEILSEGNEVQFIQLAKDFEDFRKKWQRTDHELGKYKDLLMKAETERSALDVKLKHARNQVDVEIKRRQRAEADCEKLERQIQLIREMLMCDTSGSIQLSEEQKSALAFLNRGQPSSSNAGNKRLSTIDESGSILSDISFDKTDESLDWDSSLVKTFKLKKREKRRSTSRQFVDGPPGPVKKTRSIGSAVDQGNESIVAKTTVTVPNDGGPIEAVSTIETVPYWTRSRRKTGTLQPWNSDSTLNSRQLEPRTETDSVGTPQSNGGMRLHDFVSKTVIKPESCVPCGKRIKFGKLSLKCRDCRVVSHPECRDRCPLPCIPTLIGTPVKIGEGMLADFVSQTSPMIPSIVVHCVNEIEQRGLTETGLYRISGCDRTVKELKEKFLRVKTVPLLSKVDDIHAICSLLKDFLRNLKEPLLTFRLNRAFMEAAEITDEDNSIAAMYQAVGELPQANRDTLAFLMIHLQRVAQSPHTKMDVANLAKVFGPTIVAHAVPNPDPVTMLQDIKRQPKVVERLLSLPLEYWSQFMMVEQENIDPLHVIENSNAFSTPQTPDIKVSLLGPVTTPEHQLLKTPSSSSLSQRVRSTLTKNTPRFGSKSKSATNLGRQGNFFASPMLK

Nonstructural protein 1 = Nonstructural protein 1 (Influenza A virus, UniProt Q194T2); type: functional, Influenza A virus (A/California/07/2009(H1N1))
Sequence of Nonstructural protein 1 (Q194T2 whole entry): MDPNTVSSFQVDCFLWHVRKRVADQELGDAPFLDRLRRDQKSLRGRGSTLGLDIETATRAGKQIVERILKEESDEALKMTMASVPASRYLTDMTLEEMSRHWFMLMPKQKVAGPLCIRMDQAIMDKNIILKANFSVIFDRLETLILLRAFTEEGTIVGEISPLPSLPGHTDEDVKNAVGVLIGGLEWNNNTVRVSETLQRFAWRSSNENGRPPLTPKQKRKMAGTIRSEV

P388 = test: cells; type: functional; conditions: Mus musculus
SN12K1 = test: cells; type: functional; conditions: Homo sapiens
P388/ADR = test: cells; type: functional; conditions: Mus musculus

CC(=O)c1ccc2oc3ccccc3c(=O)c2c1
AC50 (HeLa): 41 µM (active)

Cc1ccc(NCCC(=O)c2cccs2)cc1C
IC50 (cells [1]): 20.7 µM (active) | AC50 (HeLa): > 350 µM (inactive)

NS(=O)(=O)c1ccc(CCNC(=O)CNCCc2ccccc2)cc1
IC50 [2]: 3.56 µM (active) | IC50 (cells [3]): > 29.9 µM (inactive) | EC50 [4]: 1.07 µM (active) | EC50 (cells [5]): > 29.9 µM (inactive)

CN(C(=O)c1cc(-c2ccccc2)on1)C1CCCCC1
AC50 (HeLa): > 350 µM (inactive)

COc1ccccc1OCCn1c(SCC(=O)O)nc2ccccc21
IC50 [6]: 6.47 µM (active)

Cn1nc(-c2ccc(C(=O)Nc3ccc(F)cc3)cc2)c2ccccc2c1=O
IC50 [6]: 10.4 µM (active)

O=C1c2ccccc2/C(=C\C#Cc2ccccn2)N1c1ccccc1
AC50 (HeLa): 42.6 µM (active)

CCOC(=O)C(NCCc1ccccc1)(NC(=O)CC)C(F)(F)F (stereo not drawn)
IC50 [2]: 8.43 µM (active) | IC50 (cells [3]): > 29.9 µM (inactive) | EC50 [4]: 1.81 µM (active) | EC50 (cells [5]): > 29.9 µM (inactive)

Cc1cc(N(C)C)nc(Nc2ccccc2)n1
IC50 [2]: 0.273 µM (active) | IC50 (cells [3]): > 29.9 µM (inactive) | EC50 [4]: 0.128 µM (active) | EC50 (cells [5]): > 29.9 µM (inactive)

COc1cccc(C(=O)N[C@H](C(=O)N2CCC[C@H]2C(=O)NCCc2ccccc2Cl)C2CCCCC2)c1
IC50 [2]: 6.66 µM (active) | IC50 (cells [3]): > 29.9 µM (inactive) | EC50 [4]: 6.72 µM (active) | EC50 (cells [5]): > 29.9 µM (inactive)

Cc1ccc(-n2[nH]c(C)c(/C=N/Nc3ccc([N+](=O)[O-])cc3[N+](=O)[O-])c2=O)cc1C
IC50 [6]: 3.32 µM (active) | IC50 (Fatty acid synthase [7]): 53.5 µM (inactive) | IC50 (Fatty acid synthase [8]): 32.9 µM (inactive) | IC50 [9]: 10.5 µM (active) | AC50 [10]: 14 µM (active)

COc1cccc(-c2c(C(=O)N/N=C/c3ccc(C)s3)nnn2-c2nonc2N)c1
IC50 [11]: > 80 µM (inactive) | EC50 [12]: > 195 µM (not active)

CCN1CCN(c2ccc(/N=C/c3ccccc3O)cc2)CC1
AC50 [13]: 2.23 µM (active) | IC50 [14]: 20.8 µM (active)

COc1cc2c(ccc3c4cc(OC)c(OC)cc4c[n+](C)c23)cc1O [FAGARONINE]
AC50 [13]: < 0.244 µM (active) | IC50 [14]: 42.5 µM (active) | IC50 (Nonstructural protein 1): > 100 µM (active) | GI50 (P388): 0.489 µM (active) | GI50 (SN12K1): 1.95 µM (inactive) | GI50 (P388/ADR): 66.5 µM (inactive)
